Experiment [1] has as its target T1, HasAp (Pseudomonas aeruginosa, UniProt G3XD33, H32A).
T1 sequence (G3XD33 1-184 H32A): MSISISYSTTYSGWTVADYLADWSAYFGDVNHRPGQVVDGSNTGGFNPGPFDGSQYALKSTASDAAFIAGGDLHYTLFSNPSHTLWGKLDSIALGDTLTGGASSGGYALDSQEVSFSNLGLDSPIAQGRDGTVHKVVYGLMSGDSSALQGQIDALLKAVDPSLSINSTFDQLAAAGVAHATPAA
Nature of the experiment: stopped-flow UV-vis kinetics at […] °C. The experiment is classed as binding.

Experiment [2] deals with HasAp (Pseudomonas aeruginosa, UniProt G3XD33). Briefly: stopped-flow UV-vis kinetics at […] °C. The experiment is classed as binding.

The values that follow come from PMC2914800 (Biochemistry, 2010).

One may read the Kd as the free concentration of one partner at which half of the binding sites on the other are occupied at equilibrium, for simple one-to-one binding. Read a low Kd as tighter binding.

Consider `C=CC1=C(C)C2=Cc3c(C=C)c(C)c4[n]3[Fe]([Cl])[n]3c(c(C)c(CCC(=O)O)c3=CC3=NC(=C4)C(C)=C3CCC(=O)O)=CC1=N2` [hemin], for which the Kd on HasAp [1] stood at 61 µM; at HasAp [2], 35 µM.
